The text below walks through data of ChEMBL document CHEMBL3886917, “Benzimidazole-imidazole derivatives” (2016).

The nature of assay [1]: Transient Transfection Assay: In a transient set-up, a Huh-7 lunet hepatoma cell line was transiently transfected with an autonomously replicating RNA encoding a bi-cistronic expression construct. This construct comprises a firefly luciferase reporter gene preceding the NS3-NS5B subgenomic region of HCV (genotype 1a H77 or 1b Con1). Translation of the HCV subgenomic region is mediated by an internal ribosome entry site of encephalomyocarditis virus. The construct is furthermore flanked by 5' and 3' untranslated regions of HCV (genotype 1a H77 or 1b Con 1, respectively), which allow for replication of the RNA. In addition to the wild-type constructs, site-directed mutations were introduced into the transient HCV genotype 1b replicon in the gene encoding for the non-structural protein 5A (NS5A). More precisely, amino acid residues 28, 30, 31 and 93 in NS5A were independently altered. Cells were plated in 384 well plates in the presence of test and control compounds, which were added in various concentrations. Following an incubation of two days, replication of the HCV subgenomic replicon RNA was measured by assaying luciferase activity (using standard luciferase assay substrates and reagents and a Perkin Elmer ViewLux™ ultraHTS microplate imager). Format: cell-based. On the technique in general: In a reporter assay the amount or activity of a reporter protein is the signal.

The nature of assay [2]: Stable Transfection Assay: The assay utilized the stably transfected cell line Huh-7 luc/neo (hereafter referred to as Huh-Luc). This cell line harbors an RNA encoding a bicistronic expression construct comprising the wild type NS3-NS5B regions of HCV type 1b translated from an Internal Ribosome Entry Site (IRES) from encephalomyocarditis virus (EMCV), preceded by a reporter portion (FfL-luciferase), and a selectable marker portion (neoR, neomycine phosphotransferase). The construct is flanked by 5' and 3' NTRs (non-translated regions) from HCV type 1b. Continued culture of the replicon cells in the presence of G418 (neoR) is dependent on the replication of the HCV RNA. The stably transfected replicon cells that replicate HCV RNA autonomously and to high levels, encoding inter alia luciferase, were used for screening the antiviral compounds. Background: In antiviral work, replicon cells carry a viral genome segment that copies itself.

Broadly, the EC50 is the concentration that produces a half-maximal response. As to `COC(=O)N[C@H](C(=O)N1CCC[C@H]1c1ncc(-c2ccc3cc(-c4ccc5nc([C@@H]6CCCN6C(=O)[C@@H](NC(=O)OC)[C@@H](C)OC)[nH]c5c4)ccc3c2)[nH]1)C(C)C`, the EC50 in assay [1] was 7 pM.
For the molecule `COC(=O)N[C@H](C(=O)N1CCC[C@H]1c1nc2ccc(-c3ccc4cc(-c5cnc([C@@H]6CCCN6C(=O)[C@@H](NC(=O)OC)[C@@H](C)OC)[nH]5)ccc4c3)cc2[nH]1)C(C)C`, the EC50 in assay [2] was 6 pM.
